Source: patent US10251408B2, “Catechin function enhancement method” (KYUSHU UNIVERSITY, NATIONAL UNIVERSITY CORPORATION, priority 2014, dated 2019)

Key:
[1] = system: low density lipoprotein receptor (LDLR); experiment: Liver LDLR mRNA by real-time PCR in HF/HS diet-fed mice; assay type: in vivo, mouse; conditions: HF/HS diet-fed C57BL/6J mice; Yabukita 0.2% and/or eriodictyol 0.45 g/kg diet; 8 weeks; FIG. 6
Text: (§1) Male C57BL/6J mice at 12 weeks of age were preliminarily kept for 1 week and then divided into 5 groups such that the average body weight was equal in all groups, i.e., a control (AIN-93G-based diet) group, a HF/HS (high-fat high-sucrose diet) group, a Yabukita (0.2%) (HF/HS+Yabukita) group, an eriodictyol (HF/HS+eriodictyol) group, and a Yabukita+eriodictyol (HF/HS+Yabukita+eriodictyol) group. A feed supplemented with Yabukita (0.2%) and eriodictyol (0.45 g/kg diet) was given to the mice. The feed was given in an amount of 4 g/day and the mice were kept for 8 weeks under ad libitum drinking conditions. After being fasted for 16 hours, the mice were sacrificed by abdominal aortic puncture under isoflurane anesthesia. […] Yabukita and eriodictyol were examined for their effect on cholesterol metabolism-related gene expression in the liver of high-fat high-sucrose diet-fed obese model mice. C57BL/6J mice were preliminarily kept for 1 week and then divided into the respective groups such that the average body weight was equal in all groups. Each feed was given in an amount of 4 g/day and the mice were kept for 8 weeks under ad libitum drinking conditions. After being fasted for 16 hours, the mice were sacrificed by abdominal aortic puncture under isoflurane anesthesia.

[2] = system: 3-hydroxy-3-methylglutaryl-CoA synthase (HMCGS); experiment: Liver HMCGS mRNA by real-time PCR in HF/HS diet-fed mice; assay type: in vivo, mouse; conditions: HF/HS diet-fed C57BL/6J mice; Yabukita 0.2% and/or eriodictyol 0.45 g/kg diet; 8 weeks; FIG. 6
Text: as §1

[3] = system: Human multiple myeloma cell line U266; experiment: Cancer cell death induction, viable cells by trypan blue assay (96-well plate, FIG. 9); assay type: cell-based; conditions: 96 hours, in combination with EGCG, EGCG 3″Me or green tea extract
Procedure: Human multiple myeloma cell line U266 was subcultured and maintained in RPMI 1640 medium supplemented with 10% FCS under conditions of 37° C. and water vapor-saturated 5% CO2. The cells were maintained in the logarithmic growth phase. The RPMI 1640 medium used for culture was prepared as follows: per liter of ultrapure water, RPMI 1640 medium (10.4 g), HEPES (2.38 g), injectable penicillin G potassium (100,000 units), streptomycin sulfate injectable (100 mg) and NaHCO3 (2.0 g) were suspended and then filter-sterilized.
The lemon peel extract used in the experiment was prepared as follows. Peels (100 g) were collected with a grater from 6 lemons and 100% EtOH (100 mL) was added thereto, followed by mashing with a mortar. The mashed mixture was further strained through gauze to remove fibers and then filtered by gravity using a #1 paper filter and a funnel to remove precipitates, followed by centrifugation at 12000×g to collect the supernatant. The resulting ethanol extract of lemon was evaporated with an evaporator to volatilize the solvent, thereby obtaining an ethanol-extracted lemon fraction. This ethanol-extracted lemon fraction was dissolved again in DMSO to give a lemon extract. […] After culture, viable cells were counted by trypan blue assay.
To evaluate the effect of combined use of EGCG or a structural analog thereof or an EGCG-containing naturally occurring product and eriodictyol or a structural analog thereof or an eriodictyol-containing naturally occurring product, human multiple myeloma cell line U266 was adjusted to 5×10^4 cells/mL and seeded in a 96-well plate, and then cultured for 96 hours in the presence of EGCG and eriodictyol added at a final concentration of 5 μM each. After culture for 96 hours, viable cells were counted by trypan blue assay.

caspase-3 = experiment: Caspase-3 activation in MPC-11 tumor sections (immunohistological staining); assay type: in vivo, mouse; conditions: MPC-11-implanted balb/c mice; EGCG 15 mg/kg i.p. and eriodictyol 15 mg/kg i.p.; after 6 hours; FIG. 13
Procedure: After female balb/c mice at 5 weeks of age were preliminarily kept for 2 weeks, a cell suspension of mouse multiple myeloma cell line MPC-11 suspended at 5×10^6 cells/mL in RPMI medium was implanted by subcutaneous injection in a volume of 200 μL into the right dorsal region of each mouse. At 11 days after implantation, the mice were administered […] with EGCG (15 mg/kg i.p.) and eriodictyol (15 mg/kg i.p.) and then sacrificed after 6 hours. Tumors were excised and tissue sections were prepared therefrom, followed by immunohistological staining to determine the number of cells where caspase-3 was activated. To examine the effect of eriodictyol on EGCG-induced activation of caspase-3 indicative of 67LR-dependent cancer cell death induction mechanism activity, female balb/c mice at 5 weeks of age were implanted with mouse multiple myeloma cell line MPC-11 by subcutaneous injection. At 11 days after implantation, the mice were administered with EGCG (15 mg/kg i.p.) and eriodictyol (15 mg/kg i.p.) and then sacrificed after 6 hours. Tissue sections were prepared from the excised tumors and evaluated for the activation state of caspase-3.

[4] = system: high-fat high-sucrose diet-fed obese model mice; experiment: High-fat high-sucrose diet-fed mice: body weight, serum total cholesterol, LDL; assay type: in vivo, mouse; conditions: C57BL/6J mice, Yabukita 0.2% and/or eriodictyol 0.45 g/kg diet, 8 weeks, FIG. 5
Text: Male C57BL/6J mice at 12 weeks of age were preliminarily kept for 1 week and then divided into 5 groups such that the average body weight was equal in all groups, i.e., a control (AIN-93G-based diet) group, a HF/HS (high-fat high-sucrose diet) group, a Yabukita (0.2%) (HF/HS+Yabukita) group, an eriodictyol (HF/HS+eriodictyol) group, and a Yabukita+eriodictyol (HF/HS+Yabukita+eriodictyol) group. A feed supplemented with Yabukita (0.2%) and eriodictyol (0.45 g/kg diet) was given to the mice. The feed was given in an amount of 4 g/day and the mice were kept for 8 weeks under ad libitum drinking conditions. After being fasted for 16 hours, the mice were sacrificed by abdominal aortic puncture under isoflurane anesthesia. The collected blood samples were allowed to stand at 37° C. for 2 hours to cause coagulation and then centrifuged at 4° C. at 2000×g for 15 minutes to collect serum fractions. The values of serum total cholesterol and LDL were measured. […] Yabukita and eriodictyol were examined for their effect on obesity in high-fat high-sucrose diet-fed obese model mice. Male C57BL/6J mice at 12 weeks of age were preliminarily kept for 1 week and then divided into the respective groups such that the average body weight was equal in all groups. Each feed was given in an amount of 4 g/day and the mice were kept for 8 weeks under ad libitum drinking conditions. After being measured for their body weight, the mice were fasted for 16 hours and then sacrificed by abdominal aortic puncture under isoflurane anesthesia. Blood samples collected by puncture were allowed to stand at 37° C. for 2 hours to cause coagulation and then centrifuged at 4° C. at 2000×g for 15 minutes to collect serum fractions. The values of serum total cholesterol and LDL were measured.

SMILES: O=C1C[C@@H](c2ccc(O)c(O)c2)Oc2cc(O)cc(O)c21 [eriodictyol]
- mRNA expression level of LDLR in the liver [1]: no effect
- mRNA expression level of HMCGS in the liver [2]: no effect
- enhancement of the anticancer effect (viable cells) of EGCG, EGCG 3″Me or a green tea extract [3]: remarkably enhance the anticancer effect
- effect on EGCG-induced caspase-3 activation in tumors (caspase-3): remarkably enhance the ability of EGCG to induce caspase-3 activation
- high-fat high-sucrose diet-induced increase in body weight [4]: no effect
- high-fat high-sucrose diet-induced increase in serum cholesterol value [4]: no effect
- high-fat high-sucrose diet-induced increase in LDL value ([4]; serum): no effect
